Measurements as given in patent publication US9480677B2, “Enantiomers of spiro-oxindole compounds and their uses as therapeutic agents” (Xenon Pharmaceuticals Inc., priority 2009, dated 2016).
pKd, pKi: −log10 of the molar value.

Experiments:
[1] = system: CFA induced chronic inflammatory pain; test: CFA induced chronic inflammatory pain, von Frey tactile allodynia; format: in vivo, rats; details: for % Increase From Base Line, 8% topical: 8% (w/v) topical
Procedure: In this test, tactile allodynia is assessed with calibrated von Frey filaments. […] Animals were allowed to recover from the anaesthesia and the baseline thermal and mechanical nociceptive thresholds of all animals were assessed one week after the administration of CFA. All animals were habituated to the experimental equipment for 20 minutes on the day prior to the start of the experiment. The test and control articles were administrated to the animals, and the nociceptive thresholds were measured at defined time points after drug administration to determine the analgesic responses to each of the six available treatments. The time points used were previously determined to show the highest analgesic effect for each test compound. […] Each enantiomer was dosed at 10, 30, 100 or 200 mg/Kg. The plasma concentration achieved with each dose was also determined and the reversal of pain response (as the % increase from baseline threshold) is plotted as a function of plasma concentration. The (S)-enantiomer of the invention was also administered topically to the animals in varying dosages (1%, 2%, 4% and 8% (w/v)) and the nociceptive thresholds measured at defined time points after drug administration to determine the analgesic responses to each of the available treatments. The time points used were previously determined to show the highest analgesic effect for each test compound. The response thresholds of the animals to tactile stimuli were measured using the Model 2290 Electrovonfrey anesthesiometer (IITC Life Science, Woodland Hills, Calif.) following the Hargreaves test. The animals were placed in an elevated Plexiglas enclosure set on a wire mesh surface. After 15 minutes of accommodation, a pre-calibrated Von Frey hair was applied perpendicularly to the plantar of the ipsilateral hind paws of the animals, with sufficient force, measured in grams, to elicit a crisp response of the paw. The response indicated a withdrawal from the painful stimulus and constituted the efficacy endpoint. […] This cut off force is used because it represent approximately 10% of the animals' body weight and it serves to prevent raising of the entire limb due to the use of stiffer hairs, which would change the nature of the stimulus. The data were expressed as percent increase from baseline threshold measured in grams.

dental pain = test: Clinical trial for dental pain after extraction of impacted third molar teeth; format: in vivo; details: single 500 mg dose, human subjects
Procedure: The purpose of this clinical trial was to compare the safety and efficacy (onset, duration of relief, and overall efficacy) of a single 500 mg dose of the (S)-enantiomer of the invention versus placebo dose for relief of pain following extraction of impacted third molar teeth.
Sixty-one subjects were enrolled in the study. The mean age for the subjects was 20.4 years, and all subjects were male. The majority of subjects were Caucasians (95.1%).
The severity and relief of the pain was measured using an 11-point Pain Intensity Numerical Rating Scale (graded from 0=no pain at all to 10=worst pain imaginable) (PINRS) and a 5-point Categorical Pain Relief Scale (REL). Subjects completed the PINRS after surgery, but before the administration of (S)-enantiomer of the invention. Efficacy variables were derived from the REL and PINRS scores and included total pain relief (TOTPAR), pain intensity difference (PID), and summed pain intensity difference (SPID) and evaluated at time points of 4, 6, 8, and 12 hours after administration of the (S)-enantiomer of the invention.

[2] = Phase 1 clinical trial of topical ointment: systemic pharmacokinetics; format: in vivo, human
[3] = system: local skin toxicity/irritancy
hNav1.7 = hNav1.7 (Homo sapiens, UniProt Q15858); test: Electrophysiological assay, whole cell voltage clamp; format: cell-based; parameters: expressed in transfected cells; host or cells: HEK293
Chain of hNav1.7 (Q15858 whole entry): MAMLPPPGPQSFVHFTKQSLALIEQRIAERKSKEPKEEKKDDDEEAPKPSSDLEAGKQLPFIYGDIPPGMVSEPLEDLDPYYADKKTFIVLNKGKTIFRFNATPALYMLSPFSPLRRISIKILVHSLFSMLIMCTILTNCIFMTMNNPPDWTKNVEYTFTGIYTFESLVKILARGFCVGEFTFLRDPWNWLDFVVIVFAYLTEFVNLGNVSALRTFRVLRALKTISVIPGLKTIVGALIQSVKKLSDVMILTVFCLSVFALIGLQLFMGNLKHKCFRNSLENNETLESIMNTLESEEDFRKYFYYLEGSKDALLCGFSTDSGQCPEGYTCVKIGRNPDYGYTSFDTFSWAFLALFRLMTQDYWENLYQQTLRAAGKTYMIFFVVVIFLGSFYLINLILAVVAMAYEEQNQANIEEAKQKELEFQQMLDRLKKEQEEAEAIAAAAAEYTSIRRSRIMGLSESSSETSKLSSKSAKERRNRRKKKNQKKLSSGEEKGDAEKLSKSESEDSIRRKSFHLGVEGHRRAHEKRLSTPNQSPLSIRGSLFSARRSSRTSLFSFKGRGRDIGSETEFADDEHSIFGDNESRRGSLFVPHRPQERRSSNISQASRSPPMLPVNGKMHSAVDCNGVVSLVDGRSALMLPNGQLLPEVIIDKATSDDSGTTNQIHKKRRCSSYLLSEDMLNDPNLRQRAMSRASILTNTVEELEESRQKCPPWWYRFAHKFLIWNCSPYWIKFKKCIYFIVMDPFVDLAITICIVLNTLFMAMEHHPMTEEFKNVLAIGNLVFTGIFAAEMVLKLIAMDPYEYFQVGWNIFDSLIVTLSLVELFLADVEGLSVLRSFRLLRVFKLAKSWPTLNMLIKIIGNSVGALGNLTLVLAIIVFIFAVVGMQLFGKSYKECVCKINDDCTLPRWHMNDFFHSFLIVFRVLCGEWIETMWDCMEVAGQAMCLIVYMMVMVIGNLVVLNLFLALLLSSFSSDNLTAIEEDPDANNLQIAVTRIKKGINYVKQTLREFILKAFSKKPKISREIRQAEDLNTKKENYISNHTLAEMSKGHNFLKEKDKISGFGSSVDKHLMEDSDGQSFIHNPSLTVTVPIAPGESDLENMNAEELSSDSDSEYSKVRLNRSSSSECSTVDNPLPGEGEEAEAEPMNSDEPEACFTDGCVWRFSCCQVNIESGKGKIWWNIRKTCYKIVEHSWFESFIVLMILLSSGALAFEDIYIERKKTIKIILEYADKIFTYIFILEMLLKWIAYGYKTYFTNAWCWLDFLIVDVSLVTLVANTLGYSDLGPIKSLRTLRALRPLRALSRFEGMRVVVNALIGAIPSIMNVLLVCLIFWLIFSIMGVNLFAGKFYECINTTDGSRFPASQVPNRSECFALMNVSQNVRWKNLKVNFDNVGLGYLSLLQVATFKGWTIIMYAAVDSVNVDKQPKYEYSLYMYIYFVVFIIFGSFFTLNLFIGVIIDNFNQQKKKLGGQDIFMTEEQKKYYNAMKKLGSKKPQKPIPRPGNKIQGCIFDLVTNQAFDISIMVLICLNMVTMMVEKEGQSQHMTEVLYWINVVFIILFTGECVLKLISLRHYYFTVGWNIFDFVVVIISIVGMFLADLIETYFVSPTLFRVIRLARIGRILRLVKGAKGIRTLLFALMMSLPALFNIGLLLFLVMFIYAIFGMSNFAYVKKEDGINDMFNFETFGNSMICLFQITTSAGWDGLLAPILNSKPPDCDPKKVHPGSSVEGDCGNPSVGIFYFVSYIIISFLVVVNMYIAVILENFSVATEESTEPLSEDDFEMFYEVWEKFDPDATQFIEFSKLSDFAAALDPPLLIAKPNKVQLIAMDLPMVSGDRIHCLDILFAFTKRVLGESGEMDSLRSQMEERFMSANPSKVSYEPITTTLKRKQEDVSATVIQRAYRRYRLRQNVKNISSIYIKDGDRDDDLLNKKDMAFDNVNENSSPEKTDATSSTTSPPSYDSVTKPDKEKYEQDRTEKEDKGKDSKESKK
Procedure: HEK293 Cells expressing hNav1.7 were cultured in DMEM growth media (Gibco) with 0.5 mg/mL G418, +/−1% PSG, and 10% heat-inactivated fetal bovine serum at 37° C. and 5% CO2. For electrophysiological recordings, cells were plated on 10 mm dishes.
Whole cell recordings were examined by established methods of whole cell voltage clamp (Bean et al., op. cit.) using an Axopatch 200B amplifier and Clampex software (Axon Instruments, Union City, Calif.). All experiments were performed at ambient temperature. Electrodes were fire-polished to resistances of 2-4 Mohms Voltage errors and capacitance artifacts were minimized by series resistance compensation and capacitance compensation, respectively. Data were acquired at 40 kHz and filtered at 5 kHz. The external (bath) solution consisted of: NaCl (140 mM), KCl (5 mM), CaCl2 (2 mM), MgCl2 (1 mM), HEPES (10 mM) at pH 7.4. The internal (pipette) solution consisted of (in mM): NaCl (5), CaCl2 (0.1), MgCl2 (2), CsCl (10), CsF (120), HEPES (10), EGTA (10), at pH 7.2.
To estimate the steady-state affinity of compounds for the resting and inactivated state of the channel (Kr and Ki, respectively), 12.5 ms test pulses to depolarizing voltages from −60 to +90 m V from a holding potential of −120 m V was used to construct current-voltage relationships (1-V curves). A voltage near the peak of the IV-curve (−30 to 0 m V) was used as the test pulse throughout the remainder of the experiment. Steady-state inactivation (availability) curves were then constructed by measuring the current activated during a 8.75 ms test pulse following 1 second conditioning pulses to potentials ranging from −120 to −10 mV.
The steady-state voltage-dependence of binding of a compound to a voltage-gated sodium channel was determined by measuring the blockage of the ionic current at two holding potentials. Binding to rested-state channels was determined by using a holding potential of −120 mV, so that maximal availability was achieved. Binding to inactivated-state channels was evaluated at a holding potential such that only about 10% of the channels were available to open. The membrane potential was held at this voltage for at least 10 seconds so that drug binding could equilibrate.
The apparent dissociation constant at each voltage was calculated with the equation:
[formula] where Kd is the dissociation constant (either Kr or Ki), and [Drug] is the concentration of the test compound.

[4] = von Frey mechanical paw withdrawal threshold
[5] = von Frey mechanical paw withdrawal threshold, listed as (S)-enantiomer

With O=C1N(Cc2ccc(C(F)(F)F)o2)c2ccccc2[C@]12COc1cc3c(cc12)OCO3 [(I-S), (S)-1′-{[5-(trifluoromethyl)furan-2-yl]methyl}spiro[furo[2,3-f][1,3]benzodioxole-7,3′-indol]-2′(1′H)-one] the “maximal effect, reversal of pain response” value ([1]; oral dosing, 200 mg/Kg, compared with the other enantiomer) was “greater maximal effect”, the “% Increase From Base Line, 1% topical” value [1, 4] was 0.62% and the “% Increase From Base Line, 1% topical” value [1, 5] was “did not demonstrate an observable increase”. The “% Increase From Base Line, 2% topical” value ([1]; von Frey mechanical paw withdrawal threshold, 2% (w/v) topical) was 16.71%, the “% Increase From Base Line, 4% topical” value ([1]; von Frey mechanical paw withdrawal threshold, 4% (w/v) topical) was 28.79% and the “% Increase From Base Line, 8% topical” value [1, 4] was 45.06%. For the same molecule, the “% Increase From Base Line, 8% topical” value [1, 5] was 45.1%, the onset of action (dental pain) was “slow onset of action” and the “pain relief compared to placebo” value (dental pain) was “higher”. The “primary and all secondary endpoints (TOTPAR, PID, SPID) versus placebo” value (dental pain) was “consistent analgesic trend”, the “statistical significance from the placebo” value (dental pain) was “not achieved” and the concentrations in plasma ([2]; below LLOQ in most samples (489 out of 546=~90%)) was under 0.1 ng/mL. The concentration at 22 day ([2]; human, plasma, Day 22, read-out: highest level observed in plasma in one subject during the dosing period) was 0.994 ng/mL, the “Serious Adverse Events (SAEs) or deaths” value ([3]; 4% and 8% (w/w) ointment daily for 21 days, healthy subjects) was “No Serious Adverse Events (SAEs) or deaths were reported” and the “cumulative irritation scores versus placebo ointments and negative control (0.9% saline)” value ([3]; human, in vivo) was “No difference was observed”. For the same molecule, the “electrocardiography: pulse rate, quiescent resting state, QTc intervals” value ([3]; human, in vivo) was “did not demonstrate clinically significant changes”, the “severity of Adverse Events (AEs)” value ([3]; human, in vivo) was “mild or moderate in severity” and the “vital signs, physical examinations, laboratory assessments” value ([3]; human, in vivo) was “no clinically significant changes from baseline”. For the same molecule, the “skin irritation score, maximum” value ([3]; human, in vivo, 21 days) was at most 3, the “potency in binding to the inactivated-state of hNav1.7 relative to the (R)-enantiomer” value (hNav1.7; (S)- versus (R)-enantiomer) was “about 5 times” and the pKi (hNav1.7; affinity for the inactivated state of hNav1.7) was 6.79. The pKd (hNav1.7; affinity for the rested/closed state of hNav1.7, holding potential −120 mV, read-out: Kr) was under 5.00.
